Here are results for 19 compounds from patent publication US20240190871A1, “KRASG12D INHIBITOR, PREPARATION METHOD THEREFOR AND APPLICATION THEREOF” (YA THERAPEUTICS INC, priority 2021, published 2024).

This experiment relates to ATCC CRL-1739 (KRASG^12D mutant) cells. Description: Tumor cell proliferation inhibition experiment (Cell Titer-Glo, 72 hours). Format: cell-based. To be noted: 72 hours incubation, 10% fetal bovine serum, ATP content. The method, then: The ATCC CRL-1739 (KRASG^12D mutant) cells were digested, centrifuged and resuspended, and the cell density was measured with a Scepter automatic cell counter. The cells were diluted to a solution containing 44,000 cells per milliliter, and the density-adjusted cell solution was 90 per well. Microliters were added to a 96-well culture plate. The 96-well plate was placed in a 37° C., 5% CO2 incubator. After the cells were cultured for 24 hours, different concentrations of the compounds to be tested were added. The cells were incubated with the compounds for 72 hours in the presence of 10% fetal bovine serum. Glo Luminescent Cell Viability Assay Kit (see manufacturer's instructions for details) was used to measure ATP content to assess cell growth inhibition. Briefly, 30 μl of Cell Titer-Glo reagent was added to each well, and the plate was shaken for 10 minutes to induce cell lysis. FluoroskanAscentFL (Thermo) assay records the […], and the maximum signal value is obtained from cells treated with DMSO for 72 hours. The minimum signal value was obtained from the medium alone (the number of cells was zero), and the % inhibition rate=(the maximum signal value compound signal value)/(the maximum signal value−the minimum signal value×100%, and the data were processed using Graphpadprism 5 software. By sigmoid Dose-response curve fitting to calculate IC50 value. “A” means IC50≤50 nM; “B” means 50<IC50≤500 nM; “C” means 500<IC50≤2000 nM; “D” means 2000<IC50
In turn, `C[C@@H]1CNCCN1c1nc(OCCN(C)C)nc2nc(-c3c(O)cccc3F)c(F)cc12` [Compound 2, 2-(2-(2-(dimethylamino)ethoxy)-6-fluoro-4-((R)-2-methylpiperazin-1-yl)pyrido[2,3-d]pyrimidin-7-yl)-3-fluorophenol] had an IC50 of more than 2000 nM.
As to `C[C@@H]1CNCCN1c1nc(OC[C@@H]2CCCN2C)nc2nc(-c3ccccc3Cl)c(F)cc12` [Compound 32, 7-(2-chlorophenyl)-6-fluoro-4-((R)-2-methylpiperazin-1-yl)-2-(((S)-1-methylpyrrolidin-2-yl)methoxy)pyrido [2,3-d]pyrimidine], the concentration for half-maximal inhibition (IC50) was more than 2000 nM.
For `C[C@@H]1CNCCN1c1nc(OC[C@@H]2CCCN2C)nc2nc(-c3cccc4ccccc34)c(F)cc12` [Compound 35, 6-fluoro-4-((R)-2-methylpiperazin-1-yl)-2-(((S)-1-methylpyrrolidin-2-yl)methoxy)-7-(naphthalen-1-yl)pyrido[2,3-d]pyrimidine], the IC50 is more than 2000 nM.
For `C[C@@H]1CNCCN1c1nc(OC[C@@H]2CCCN2C)nc2nc(-c3ccc4ccccc4c3)c(F)cc12` [Compound 37, 6-fluoro-4-((R)-2-methylpiperazin-1-y1)-2-(((S)-1-methylpyrrolidin-2-yl)methoxy)-7-(naphthalen-2-yl)pyrido[2,3-d]pyrimidine] the value was more than 2000 nM; for `C[C@@H]1CNCCN1c1nc(OC[C@@H]2CCCN2C)nc2nc(-c3cccc4ccsc34)c(F)cc12` [Compound 38, 7-(benzo[b]thiophen-7-yl)-6-fluoro-4-((R)-2-methylpiperazin-1-y1)-2-(((S)-1-methylpyrrolidin-2-yl)methoxy)pyrido [2,3-d]pyrimidine], more than 2000 nM; for `C[C@@H]1CNCCN1c1nc(OC[C@@H]2CCCN2C)nc2nc(-c3cccc4cccnc34)c(F)cc12` [Compound 39, 6-fluoro-4-((R)-2-methylpiperazin-1-yl)-2-(((S)-1-methylpyrrolidin-2-yl)methoxy)-7-(quinolin-8-yl)pyrido[2,3-d]pyrimidine], more than 2000 nM.
For `C[C@@H]1CNCCN1c1nc(OC[C@@H]2CCCN2C)nc2nc(-c3cccc4ccoc34)c(F)cc12` [Compound 40, 7-(benzofuran-7-yl)-6-fluoro-4-((R)-2-methylpiperazin-1-yl)-2-(((S)-1-methylpyrrolidin-2-yl)methoxy)pyrido [2,3-d]pyrimidine] the value was more than 2000 nM; for `C[C@@H]1CNCCN1c1nc(OC[C@@H]2CCCN2C)nc2nc(-c3cccc4c3ccn4C)c(F)cc12` [Compound 41, 6-fluoro-7-(1-methyl-1H-indol-4-yl)-4-((R)-2-methylpiperazin-1-yl)-2-(((S)-1-methylpyrrolidin-2-yl)methoxy)pyrido [2,3-d]pyrimidine], more than 2000 nM.
In turn, `C[C@@H]1CNCCN1c1nc(OC[C@@H]2CCCN2C)nc2nc(-c3cccc4c3cnn4C)c(F)cc12` [Compound 42, 6-fluoro-7-(1-methyl-1H-indazol-4-yl)-4-((R)-2-methylpiperazin-1-yl)-2-(((S)-1-methylpyrrolidin-2-yl)methoxy)pyrido [2,3-d]pyrimidine] had a half-inhibitory concentration (IC50) of more than 2000 nM.
As for `C[C@@H]1CNCCN1c1nc(OC[C@@H]2CCCN2C)nc2nc(-c3cccc4ccncc34)c(F)cc12` [Compound 43, 6-fluoro-7-(isoquinolin-8-y1)-4-((R)-2-methylpiperazin-1-y1)-2-(((S)-1-methylpyrrolidin-2-yl)methoxy)pyrido [2,3-d]pyrimidine], the concentration for half-maximal inhibition (IC50) fell in the range of 500 to 2000 nM.
Consider `C[C@@H]1CNCCN1c1nc(OC[C@@H]2CCCN2C)nc2nc(-c3cccc4ncccc34)c(F)cc12` [Compound 44, 6-fluoro-4-((R)-2-methylpiperazin-1-y1)-2-(((S)-1-methylpyrrolidin-2-yl)methoxy)-7-(quinolin-5-yl)pyrido[2,3-d]pyrimidine], for which the IC50 lay within 500 to 2000 nM.
The result for `CN1CCC[C@H]1COc1nc(N2C3CNCC2C3)c2cc(F)c(-c3cc(O)cc4cccc(Cl)c34)nc2n1` [Compound 47, 4-(4-(3,6-diazabicyclo[3.1.1]heptan-6-yl)-6-fluoro-2-(((S)-1-methylpyrrolidin-2-yl)methoxy)pyrido [2,3-d]pyrimidin-7-yl)-5-chloronaphthalen-2-ol] reads 50 to 500 nM.
For `CN1CCC[C@H]1COc1nc(N2C3CNCC2C3)c2cc(F)c(-c3cc(O)cc4cccc(F)c34)nc2n1` [Compound 48, 4-(4-(3,6-diazabicyclo[3.1.1]heptan-6-yl)-6-fluoro-2-(((S)-1-methylpyrrolidin-2-yl)methoxy)pyrido [2,3-d]pyrimidin-7-yl)-5-fluoronaphthalen-2-ol] the value was not above 50 nM; for `CN1C[C@H](F)C[C@H]1COc1nc(N2C3CNCC2C3)c2cc(F)c(-c3cc(O)cc4cccc(F)c34)nc2n1` [Compound 49, 4-(4-(3,6-diazabicyclo[3.1.1]heptan-6-yl)-6-fluoro-2-(((2S,4R)-4-fluoro-1-methylpyrrolidin-2-yl)methoxy)pyrido [2,3-d]pyrimidin-7-y1)-5-fluoronaphthalen-2-ol], 500 to 2000 nM; for `Oc1cc(-c2nc3nc(OC[C@@H]4C[C@@H](F)CN4C4CC4)nc(N4C5CNCC4C5)c3cc2F)c2c(F)cccc2c1` [Compound 50, 4-(4-(3,6-diazabicyclo[3.1.1]heptan-6-yl)-2-(((2S,4R)-1-cyclopropyl-4-fluoropyrrolidin-2-yl)methoxy)-6-fluoropyrido[2,3-d]pyrimidin-7-yl)-5-fluoronaphthalen-2-ol], 500 to 2000 nM.
The result for `Oc1cc(-c2nc3nc(OCC4(CN5CCCC5)CC4)nc(N4C5CNCC4C5)c3cc2F)c2c(F)cccc2c1` [Compound 51, 4-(4-(3,6-diazabicyclo[3.1.1]heptan-6-yl)-6-fluoro-2-((1-(pyrrolidin-1-ylmethyl)cyclopropyl)methoxy)pyrido[2,3-d]pyrimidin-7-yl)-5-fluoronaphthalen-2-ol] reads 50 to 500 nM.
Consider `Oc1cc(-c2nc3nc(OCC4(CN5CC[C@@H](F)C5)CC4)nc(N4C5CNCC4C5)c3cc2F)c2c(F)cccc2c1` [Compound 52, 4-(4-(3,6-diazabicyclo[3.1.1]heptan-6-yl)-6-fluoro-2-((1-(((R)-3-fluoropyrrolidin-1-yl)methyl)cyclopropyl)methoxy)pyrido[2,3-d]pyrimidin-7-yl)-5-fluoronaphthalen-2-ol], for which the half-inhibitory concentration (IC50) was in the range of 50 to 500 nM.
For `Oc1cc(-c2nc3nc(OC[C@@]45CCCN4C[C@H](F)C5)nc(N4C5CNCC4C5)c3cc2F)c2c(Cl)cccc2c1` [Compound 53, 4-(4-(3,6-diazabicyclo[3.1.1]heptan-6-yl)-6-fluoro-2-(((2R,7aS)-2-fluorohexahydro-1H-pyrrolizin-7a-yl)methoxy)pyrido[2,3-d]pyrimidin-7-yl)-5-chloronaphthalen-2-ol] the value was not above 50 nM.
The result for `Oc1cc(-c2nc3nc(OC[C@@]45CCCN4C[C@H](F)C5)nc(N4C[C@H]5CC[C@@H](C4)N5)c3cc2F)c2c(Cl)cccc2c1` [Compound 55, 4-(4-((1R,5S)-3,8-diazabicyclo [3.2.1]octan-3-yl)-6-fluoro-2-(((2R,7aS)-2-fluorohexahydro-1H-pyrrolizin-7a-yl)methoxy)pyrido[2,3-d]pyrimidin-7-yl)-5-chloronaphthalen-2-ol] reads not above 50 nM.
